The source of these data is patent publication US11731986B2 (Sanford Burnham Prebys Medical Discovery Institute, priority 2017, dated 2023).

Where only a bound is given, the exact number is not on record here.

For this assay, the target named is T1, human LMPTP-A (Homo sapiens, UniProt P24666).
T1 sequence (P24666 1-158): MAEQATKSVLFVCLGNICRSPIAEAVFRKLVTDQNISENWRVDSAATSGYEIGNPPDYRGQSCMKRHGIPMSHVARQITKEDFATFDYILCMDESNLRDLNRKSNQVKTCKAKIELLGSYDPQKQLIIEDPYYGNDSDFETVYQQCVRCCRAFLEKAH
Nature of the assay: Enzyme Assay of Inhibition of LMPTP-A (phosphatase assay, OMFP or pNPP substrate). Format: biochemical. The settings on record: Bis-Tris pH 6.0, 37° C. The gist of the method: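 Buffer 50 mM Bis-Tris pH 6.0, 1 mM DTT, 0.01% Triton X-100, 37 °C; OMFP read continuously (485/525 nm) or pNPP stopped with NaOH, 405 nm. IC50 from concentration vs % activity. Selectivity: 40 μM compound with 0.4 mM OMFP or 5 mM pNPP; reversibility: 50 nM enzyme, 10 μM compound, 5 min, 100× dilution.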
On to `CN1CCC(NC(=O)c2cc3cc(-c4cc(Nc5ccc(CN6CCCC6)cc5)c5cnccc5n4)ccc3n2C)CC1` [1-methyl-N-(1-methylpiperidin-4-yl)-5-(4-((4-(pyrrolidin-1-ylmethyl)phenyl)amino)-1,6-naphthyridin-2-yl)-1H-indole-2-carboxamide], for which the IC50 is at most 1000 nM.

Regarding `CN1CCC(NC(=O)c2ccc(-c3cc(NCCCN4CCCCC4)c4cncc(Br)c4n3)cc2)CC1` [4-(8-Bromo-4-((3-(piperidin-1-yl)propyl)amino)-1,6-naphthyridin-2-yl)-N-(1-methylpiperidin-4-yl)benzamide], the IC50 is at least 20000 nM. Take `CCN(CC)C(=O)c1ccc(-c2cc(NC3CCNCC3)c3cnccc3n2)cc1` [N,N-Diethyl-4-(4-(piperidin-4-ylamino)-1,6-naphthyridin-2-yl)benzamide]: the IC50 was 1000 to 20000 nM. `CN1CCC(NC(=O)c2cc3ccc(-c4cc(NCCCN5CCCCC5)c5cnccc5n4)cc3s2)CC1` [N-(1-methylpiperidin-4-yl)-6-(4-(3-(piperidin-1-yl)propylamino)-1,6-naphthyridin-2-yl)benzo[b]thiophene-2-carboxamide] had a concentration for half-maximal inhibition (IC50) of at most 1000 nM.

Consider `CCN(CC)C(=O)c1ccc(-c2cc(NCCN3CCN(S(C)(=O)=O)CC3)c3cnccc3n2)cc1` [N,N-diethyl-4-(4-(2-(4-(methylsulfonyl)piperazin-1-yl)ethylamino)-1,6-naphthyridin-2-yl)benzamide], for which the IC50 lay in the range of 1000 to 20000 nM.

As to `CCN(CC)C(=O)c1ccc(-c2cc(NCCCN3CCCCC3)c3ccncc3n2)cc1` [N,N-diethyl-4-(4-(3-(piperidin-1-yl)propylamino)-1,7-naphthyridin-2-yl)benzamide], the IC50 was at least 20000 nM. The compound `CNc1cc(-c2ccc3c(c2)cc(C(N)=O)n3C)nc2ccncc12` [1-methyl-5-(4-(methylamino)-1,6-naphthyridin-2-yl)-1H-indole-2-carboxamide] yielded an IC50 of 1000 to 20000 nM. The figure for `O=C(c1nc2cc(-c3cc(NCCCN4CCCCC4)c4cnccc4n3)ccc2[nH]1)N1CCNCC1` is at most 1000 nM; for `CCNc1cc(-c2ccc3[nH]c(C(=O)NCCCN4CCCCC4)nc3c2)nc2ccncc12` [5-(4-(ethylamino)-1,6-naphthyridin-2-yl)-N-(3-(piperidin-1-yl)propyl)-1H-benzo[d]imidazole-2-carboxamide] it is 1000 to 20000 nM; for `CCN(CC)C(=O)c1nc2cc(-c3cc(NCCCN4CCCCC4)c4cnccc4n3)ccc2[nH]1` [N,N-diethyl-5-(4-((3-(piperidin-1-yl)propyl)amino)-1,6-naphthyridin-2-yl)-1H-benzo[d]imidazole-2-carboxamide] it is 1000 to 20000 nM. Turning to `CN1CCN(CCCNC(=O)c2nc3cc(-c4cc(NCCCN5CCCCC5)c5cnccc5n4)ccc3[nH]2)CC1` [N-(3-(4-methylpiperazin-1-yl)propyl)-5-(4-((3-(piperidin-1-yl)propyl)amino)-1,6-naphthyridin-2-yl)-1H-benzo[d]imidazole-2-carboxamide], the IC50 was at most 1000 nM. With `CN1CCC(CNC(=O)c2cc3cc(-c4cc(NC5CCN(C)CC5)c5cnccc5n4)ccc3n2C)CC1` [1-Methyl-5-(4-((1-methylpiperidin-4-yl)amino)-1,6-naphthyridin-2-yl)-N-((1-methylpiperidin-4-yl)methyl)-1H-indole-2-carboxamide], the IC50 was at most 1000 nM.

`CCN(CC)C(=O)c1ccc(-c2cc(NCCN3CCNCC3)c3cnccc3n2)cc1` [N,N-diethyl-4-(4-(2-(piperazin-1-yl)ethylamino)-1,6-naphthyridin-2-yl)benzamide] had an IC50 of 1000 to 20000 nM. In turn, `CN1CCC(NC(=O)c2cc3cc(-c4cc(N(C)CCCN5CCCCC5)c5cnccc5n4)ccc3n2C)CC1` [1-methyl-5-(4-(methyl(3-(piperidin-1-yl)propyl)amino)-1,6-naphthyridin-2-yl)-N-(1-methylpiperidin-4-yl)-1H-indole-2-carboxamide] gave an IC50 of 1000 to 20000 nM. For `CCN(CC)C(=O)c1cc2ccc(-c3cc(NCCCN4CCCCC4)c4cnccc4n3)cc2s1` [N,N-diethyl-6-(4-(3-(piperidin-1-yl)propylamino)-1,6-naphthyridin-2-yl)benzo[b]thiophene-2-carboxamide] the value was at most 1000 nM. The figure for `COc1cc(-c2ccc3c(c2)cc(C(=O)NC2CCN(C)CC2)n3C)nc2ccncc12` [5-(4-methoxy-1,6-naphthyridin-2-yl)-1-methyl-N-(1-methylpiperidin-4-yl)-1H-indole-2-carboxamide] is at least 20000 nM; for `CCN1CCN(C(=O)c2nc3cc(-c4cc(NCCCN5CCCCC5)c5cnccc5n4)ccc3[nH]2)CC1` [(4-ethylpiperazin-1-yl)(5-(4-((3-(piperidin-1-yl)propyl)amino)-1,6-naphthyridin-2-yl)-1H-benzo[d]imidazol-2-yl)methanone] it is at most 1000 nM; for `CN1CCC(N/C(=N\O)c2ccc(-c3cc(NCCCN4CCCCC4)c4cnccc4n3)cc2)CC1` it is 1000 to 20000 nM. The figure for `CCN1CCN(C(=O)c2nc3cc(-c4cc(NCCCN5CCCCC5)c5cnccc5n4)ccc3n2CC)CC1` [(1-ethyl-5-(4-((3-(piperidin-1-yl)propyl)amino)-1,6-naphthyridin-2-yl)-1H-benzo[d]imidazol-2-yl)(4-ethylpiperazin-1-yl)methanone] is at most 1000 nM.

Consider `CN1CCC(NC(=O)c2ccc(-c3cc(NC4CCNC4)c4cnccc4n3)cc2)CC1` (stereo not shown) [N-(1-Methylpiperidin-4-yl)-4-(4-(pyrrolidin-3-ylamino)-1,6-naphthyridin-2-yl)benzamide], for which the IC50 was in the range of 1000 to 20000 nM. The figure for `CN1CCC(CNC(=O)/C=C/c2ccc(-c3cc(NCCCN4CCCCC4)c4cnccc4n3)cc2)CC1` [(E)-N-((1-Methylpiperidin-4-yl)methyl)-3-(4-(4-(3-(piperidin-1-yl)propylamino)-1,6-naphthyridin-2-yl)phenyl)acrylamide] is at most 1000 nM; for `CCN(CC)C(=O)c1ccc(-c2cc(NCCCN3CCN(S(C)(=O)=O)CC3)c3cnccc3n2)cc1` [N,N-Diethyl-4-(4-((3-(4-(methylsulfonyl)piperazin-1-yl)propyl)amino)-1,6-naphthyridin-2-yl)benzamide] it is 1000 to 20000 nM; for `O=C(NCCCN1CCCCC1)c1ccc(-c2cc(NC3CCNCC3)c3cnccc3n2)cc1` [N-(3-(Piperidin-1-yl)propyl)-4-(4-(piperidin-4-ylamino)-1,6-naphthyridin-2-yl)benzamide] it is 1000 to 20000 nM. For `CCN1CCC(NC(=O)c2cc3ccc(-c4cc(NCCCN5CCCCC5)c5cnccc5n4)cc3s2)CC1` [N-(1-ethylpiperidin-4-yl)-6-(4-(3-(piperidin-1-yl)propylamino)-1,6-naphthyridin-2-yl)benzo[b]thiophene-2-carboxamide] the value was at most 1000 nM. As for `CCN(CC)C(=O)CCOc1ccc(-c2cc(NCCCN3CCCCC3)c3cnccc3n2)cc1` [N,N-diethyl-3-(4-(4-((3-(piperidin-1-yl)propyl)amino)-1,6-naphthyridin-2-yl)phenoxy)propanamide], the 50% inhibitory concentration (IC50) is at least 20000 nM.

With `CN1CCN(CCCNC(=O)c2nc3cc(-c4cc(Nc5ccc(CN6CCCC6)cc5)c5cnccc5n4)ccc3[nH]2)CC1` [N-(3-(4-methylpiperazin-1-yl)propyl)-5-(4-((4-(pyrrolidin-1-ylmethyl)phenyl)amino)-1,6-naphthyridin-2-yl)-1H-benzo[d]imidazole-2-carboxamide], the IC50 was at least 20000 nM. With `O=C(c1nc2ccc(-c3cc(NCCCN4CCCCC4)c4cnccc4n3)cc2s1)N1CCOCC1` [Morpholino(6-(4-(3-(piperidin-1-yl)propylamino)-1,6-naphthyridin-2-yl)benzo[d]thiazol-2-yl)methanone], the IC50 was in the range of 1000 to 20000 nM.

In the case of `CCN(CC)C(=O)c1ccc(-c2cc(NCCCN3CCCCC3)c3cncc(Br)c3n2)cc1` [4-(8-Bromo-4-((3-(piperidin-1-yl)propyl)amino)-1,6-naphthyridin-2-yl)-N,N-diethylbenzamide], the IC50 is at least 20000 nM.
